Source: ChEMBL document CHEMBL5036317, “Identification of Unique Quinazolone Thiazoles as Novel Structural Scaffolds for Potential Gram-Negative Bacterial Conquerors” (J Med Chem, 2021)
In brackets after ≈: the same amount, converted by molar mass.

What was measured:
Staphylococcus aureus [1] = assay: Antibacterial activity against methicillin-resistant Staphylococcus aureus assessed as inhibition of bacterial growth measured after 24 hrs by two-fold serial dilution method; format: functional
Enterococcus faecalis = assay: Antibacterial activity against Enterococcus faecalis assessed as inhibition of bacterial growth measured after 24 hrs by two-fold serial dilution method; format: functional
Staphylococcus aureus [2] = assay: Antibacterial activity against Staphylococcus aureus assessed as inhibition of bacterial growth measured after 24 hrs by two-fold serial dilution method; format: functional
Staphylococcus aureus [3] = assay: Antibacterial activity against Staphylococcus aureus ATCC 25923 assessed as inhibition of bacterial growth measured after 24 hrs by two-fold serial dilution method; format: functional
Staphylococcus aureus [4] = assay: Antibacterial activity against Staphylococcus aureus ATCC 29213 assessed as inhibition of bacterial growth measured after 24 hrs by two-fold serial dilution method; format: functional
Klebsiella pneumoniae = assay: Antibacterial activity against Klebsiella pneumoniae assessed as inhibition of bacterial growth measured after 24 hrs by two-fold serial dilution method; format: functional
Escherichia coli [5] = assay: Antibacterial activity against Escherichia coli assessed as inhibition of bacterial growth measured after 24 hrs by two-fold serial dilution method; format: functional
Pseudomonas aeruginosa [6] = assay: Antibacterial activity against Pseudomonas aeruginosa assessed as inhibition of bacterial growth measured after 24 hrs by two-fold serial dilution method; format: functional
Acinetobacter baumannii = assay: Antibacterial activity against Acinetobacter baumanii assessed as inhibition of bacterial growth measured after 24 hrs by two-fold serial dilution method; format: functional
Pseudomonas aeruginosa [7] = assay: Antibacterial activity against Pseudomonas aeruginosa ATCC 27853 assessed as inhibition of bacterial growth measured after 24 hrs by two-fold serial dilution method; format: functional
Escherichia coli [8] = assay: Antibacterial activity against Escherichia coli ATCC 25922 assessed as inhibition of bacterial growth measured after 24 hrs by two-fold serial dilution method; format: functional
[9] = Haemolytic activity in human erythrocytes incubated for 2 hrs; format: ADME, cell-based, Erythrocyte

SMILES | MIC (Staphylococcus aureus [1]) [µg/mL] | MIC (Enterococcus faecalis) [µg/mL] | MIC (Staphylococcus aureus [2]) [µg/mL] | MIC (Staphylococcus aureus [3]) [µg/mL] | MIC (Staphylococcus aureus [4]) [µg/mL] | MIC (Klebsiella pneumoniae) [µg/mL] | MIC (Escherichia coli [5]) [µg/mL] | MIC (Pseudomonas aeruginosa [6]) [µg/mL] | MIC (Acinetobacter baumannii) [µg/mL] | MIC (Pseudomonas aeruginosa [7]) [µg/mL] | MIC (Escherichia coli [8]) [µg/mL] | HC50 at 2 h [9] [µg/mL]
O=C(/C(=C/c1ccc(C(F)(F)F)cc1)n1cnc2cc(F)ccc2c1=O)c1nccs1 | 8 (≈ 18 µM) | 4 (≈ 8.98 µM) | 16 (≈ 35.9 µM) | 2 (≈ 4.49 µM) | 4 (≈ 8.98 µM) | 2 (≈ 4.49 µM) | 8 (≈ 18 µM) | 16 (≈ 35.9 µM) | 1 (≈ 2.25 µM) | 4 (≈ 8.98 µM) | 4 (≈ 8.98 µM) | > 250
Cc1ccc2c(/C=C(/C(=O)c3nccs3)n3cnc4cc(Cl)ccc4c3=O)c[nH]c2c1 | 32 (≈ 71.6 µM) | 64 (≈ 143 µM) | 512 (≈ 1150 µM) | 32 (≈ 71.6 µM) | 32 (≈ 71.6 µM) | 64 (≈ 143 µM) | 128 (≈ 286 µM) | 64 (≈ 143 µM) | 8 (≈ 17.9 µM) | 8 (≈ 17.9 µM) | 16 (≈ 35.8 µM) | > 250
O=C(/C(=C/c1ncc[nH]1)n1cnc2cc(Cl)ccc2c1=O)c1nccs1 | 512 (≈ 1330 µM) | 512 (≈ 1330 µM) | 512 (≈ 1330 µM) | 512 (≈ 1330 µM) | 512 (≈ 1330 µM) | 64 (≈ 167 µM) | 256 (≈ 667 µM) | 16 (≈ 41.7 µM) | 512 (≈ 1330 µM) | 16 (≈ 41.7 µM) | 64 (≈ 167 µM) | > 250
O=C(/C(=C/c1ccc2ccccc2c1)n1cnc2cc(Cl)ccc2c1=O)c1nccs1 | 4 (≈ 9.01 µM) | 16 (≈ 36 µM) | 4 (≈ 9.01 µM) | 4 (≈ 9.01 µM) | 16 (≈ 36 µM) | 32 (≈ 72.1 µM) | 32 (≈ 72.1 µM) | 4 (≈ 9.01 µM) | 16 (≈ 36 µM) | 4 (≈ 9.01 µM) | 4 (≈ 9.01 µM) | 192
O=C(/C(=C/c1ccc(Cl)cc1Cl)n1cnc2cc(Cl)ccc2c1=O)c1nccs1 | 8 (≈ 17.3 µM) | 8 (≈ 17.3 µM) | 32 (≈ 69.2 µM) | 1 (≈ 2.16 µM) | 2 (≈ 4.32 µM) | 1 (≈ 2.16 µM) | 2 (≈ 4.32 µM) | 8 (≈ 17.3 µM) | 16 (≈ 34.6 µM) | 1 (≈ 2.16 µM) | 2 (≈ 4.32 µM) | 176
CN(C)/C=C(/C(=O)c1nccs1)n1cnc2cc(Cl)ccc2c1=O | 512 (≈ 1420 µM) | 128 (≈ 355 µM) | 512 (≈ 1420 µM) | 256 (≈ 709 µM) | 512 (≈ 1420 µM) | 128 (≈ 355 µM) | 512 (≈ 1420 µM) | 16 (≈ 44.3 µM) | 128 (≈ 355 µM) | 16 (≈ 44.3 µM) | 16 (≈ 44.3 µM) | 204
O=C(/C(=C/c1c[nH]c2cc(Cl)ccc12)n1cnc2cc(Cl)ccc2c1=O)c1nccs1 | 32 (≈ 68.5 µM) | 2 (≈ 4.28 µM) | 512 (≈ 1100 µM) | 2 (≈ 4.28 µM) | 2 (≈ 4.28 µM) | 64 (≈ 137 µM) | 64 (≈ 137 µM) | 256 (≈ 548 µM) | 512 (≈ 1100 µM) | 64 (≈ 137 µM) | 2 (≈ 4.28 µM) | > 250
O=C(/C(=C/c1ccc(N2CCCCC2)cc1F)n1cnc2cc(Cl)ccc2c1=O)c1nccs1 | 512 (≈ 1030 µM) | 512 (≈ 1030 µM) | 512 (≈ 1030 µM) | 512 (≈ 1030 µM) | 2 (≈ 4.04 µM) | 512 (≈ 1030 µM) | 512 (≈ 1030 µM) | 128 (≈ 259 µM) | 128 (≈ 259 µM) | 32 (≈ 64.6 µM) | 512 (≈ 1030 µM) | 181
O=C(/C(=C/c1ccccc1)n1cnc2cc(Cl)ccc2c1=O)c1nccs1 | 4 (≈ 10.2 µM) | 1 (≈ 2.54 µM) | 8 (≈ 20.3 µM) | 2 (≈ 5.08 µM) | 2 (≈ 5.08 µM) | 2 (≈ 5.08 µM) | 8 (≈ 20.3 µM) | 4 (≈ 10.2 µM) | 4 (≈ 10.2 µM) | 2 (≈ 5.08 µM) | 4 (≈ 10.2 µM) | 222
Cc1ccc(/C=C(/C(=O)c2nccs2)n2cnc3cc(Cl)ccc3c2=O)cc1 | 64 (≈ 157 µM) | 8 (≈ 19.6 µM) | 4 (≈ 9.81 µM) | 2 (≈ 4.9 µM) | 4 (≈ 9.81 µM) | 128 (≈ 314 µM) | 32 (≈ 78.5 µM) | 4 (≈ 9.81 µM) | 1 (≈ 2.45 µM) | 1 (≈ 2.45 µM) | 1 (≈ 2.45 µM) | > 250
O=C(/C(=C/c1csc2ccccc12)n1cnc2cc(Cl)ccc2c1=O)c1nccs1 | 512 (≈ 1140 µM) | 512 (≈ 1140 µM) | 512 (≈ 1140 µM) | 256 (≈ 569 µM) | 16 (≈ 35.6 µM) | 128 (≈ 284 µM) | 16 (≈ 35.6 µM) | 32 (≈ 71.1 µM) | 32 (≈ 71.1 µM) | 16 (≈ 35.6 µM) | 16 (≈ 35.6 µM) | > 250
O=C(/C(=C/c1c[nH]c2ccccc12)n1cnc2cc(Cl)ccc2c1=O)c1nccs1 | 256 (≈ 591 µM) | 256 (≈ 591 µM) | 64 (≈ 148 µM) | 64 (≈ 148 µM) | 64 (≈ 148 µM) | 128 (≈ 296 µM) | 64 (≈ 148 µM) | 256 (≈ 591 µM) | 256 (≈ 591 µM) | 64 (≈ 148 µM) | 64 (≈ 148 µM) | > 250
